Data reported in the NIST ThermoML archive (doi:10.1021/je060271a).
Values joined by “and” are separate entries in the source; they are usually repeats but may differ in a detail not shown here. Identical values can stand only once.

Conditions: Liquid, Vibrating tube method

CCCCCCCC(=O)OCC(COC(=O)CCCCCCC)(COC(=O)CCCCCCC)COC(=O)CCCCCCC [pentaerythritol tetraoctanoate]
Conditions	mass density
323.16 K, 4757.8 kPa	943.8 kg/m3
323.16 K, 4775.8 kPa	944 kg/m3
323.16 K, 4790.7 kPa	943.8 kg/m3
323.16 K, 4806.4 kPa	943.9 kg/m3
323.16 K, 4825.1 kPa	943.9 kg/m3
323.16 K, 4840.2 kPa	943.9 kg/m3
323.16 K, 4856.4 kPa	943.9 kg/m3
323.16 K, 4875.1 kPa	943.9 kg/m3
323.16 K, 5122 kPa	944.1 kg/m3
323.16 K, 5143.5 kPa	944.1 kg/m3
323.16 K, 5161 kPa	944.2 kg/m3
323.16 K, 5179 kPa	944.2 kg/m3
323.16 K, 5197.1 kPa	944.1 kg/m3
323.16 K, 5335.6 kPa	944.3 kg/m3
323.16 K, 5398.2 kPa	944.3 kg/m3
323.16 K, 5417.6 kPa	944.3 kg/m3
323.16 K, 5438 kPa	944.3 kg/m3
323.16 K, 5461.9 kPa	944.3 kg/m3
323.16 K, 5481.8 kPa	944.5 kg/m3
323.16 K, 5502.5 kPa	944.5 kg/m3
323.16 K, 5527.1 kPa	944.4 kg/m3
323.16 K, 5547.9 kPa	944.4 kg/m3
323.16 K, 5568.6 kPa	944.4 kg/m3
323.16 K, 5590.2 kPa	944.4 kg/m3
323.16 K, 5611.9 kPa	944.4 kg/m3
323.16 K, 5637.6 kPa	944.4 kg/m3
323.16 K, 5659.6 kPa	944.4 kg/m3
323.16 K, 5703.9 kPa	944.5 kg/m3
323.16 K, 5774.4 kPa	944.6 kg/m3
323.16 K, 5797.1 kPa	944.6 kg/m3
323.16 K, 5824.6 kPa	944.7 kg/m3
323.16 K, 5870.9 kPa	944.6 kg/m3
323.16 K, 6078.5 kPa	944.7 kg/m3
323.16 K, 6238.8 kPa	944.8 kg/m3
323.16 K, 6265.6 kPa	944.9 kg/m3
323.16 K, 6297.7 kPa	944.9 kg/m3
323.16 K, 6324.9 kPa	944.9 kg/m3
323.16 K, 6352.7 kPa	944.9 kg/m3
323.16 K, 6380.2 kPa	944.9 kg/m3
323.16 K, 12370 kPa	948.8 kg/m3
323.16 K, 12396 kPa	948.8 kg/m3
323.16 K, 12424 kPa	948.8 kg/m3
323.16 K, 20026 kPa	953.6 kg/m3
323.16 K, 21868 kPa	954.6 kg/m3
323.16 K, 21910 kPa	954.7 kg/m3
323.16 K, 22807 kPa	955.3 kg/m3
323.16 K, 27149 kPa	957.8 kg/m3
323.16 K, 27197 kPa	957.9 kg/m3
323.16 K, 27237 kPa	957.9 kg/m3
323.16 K, 27277 kPa	957.9 kg/m3
323.16 K, 27317 kPa	957.9 kg/m3
323.16 K, 27366 kPa	957.9 kg/m3
323.16 K, 27451 kPa	958 kg/m3
323.16 K, 27504 kPa	958 kg/m3
323.16 K, 27997 kPa	958.3 kg/m3
323.16 K, 28020 kPa	958.4 kg/m3
323.16 K, 28046 kPa	958.3 kg/m3
323.16 K, 28069 kPa	958.3 kg/m3
343.14 K, 4667.8 kPa	929.4 kg/m3
343.14 K, 4690.1 kPa	929.4 kg/m3
343.14 K, 8016.3 kPa	931.8 kg/m3
343.14 K, 8048.6 kPa	931.8 kg/m3
343.14 K, 8086.2 kPa	932 kg/m3
343.14 K, 8118.6 kPa	931.9 kg/m3
343.14 K, 8397.9 kPa	932.1 kg/m3
343.14 K, 8438.9 kPa	932.1 kg/m3
343.14 K, 8473.8 kPa	932.1 kg/m3
343.14 K, 8822.1 kPa	932.4 kg/m3
343.14 K, 8860.4 kPa	932.5 kg/m3
343.14 K, 8906.8 kPa	932.5 kg/m3
343.14 K, 8945 kPa	932.5 kg/m3
343.14 K, 9418.7 kPa	932.8 kg/m3
343.14 K, 10399 kPa	933.5 kg/m3
343.14 K, 11681 kPa	934.4 kg/m3
343.14 K, 13765 kPa	935.9 kg/m3
343.14 K, 16874 kPa	938 kg/m3
343.14 K, 17179 kPa	938.2 kg/m3
343.14 K, 17211 kPa	938.2 kg/m3
343.14 K, 17250 kPa	938.2 kg/m3
343.14 K, 17283 kPa	938.3 kg/m3
343.14 K, 17315 kPa	938.2 kg/m3
343.14 K, 20086 kPa	940.3 kg/m3
343.14 K, 20133 kPa	940.1 kg/m3
343.14 K, 20456 kPa	940.4 kg/m3
343.14 K, 20478 kPa	940.5 kg/m3
343.14 K, 20501 kPa	940.3 kg/m3
343.14 K, 22979 kPa	942 kg/m3
343.14 K, 24214 kPa	942.8 kg/m3
343.14 K, 26657 kPa	944.4 kg/m3
343.14 K, 30407 kPa	946.7 kg/m3
343.14 K, 30444 kPa	946.7 kg/m3
343.14 K, 30488 kPa	946.6 kg/m3
343.14 K, 30968 kPa	947 kg/m3
343.14 K, 32801 kPa	948 kg/m3
343.15 K, 105.1 kPa	926 kg/m3
343.15 K, 105.3 kPa	926.1 kg/m3 and 926 kg/m3 and 926.2 kg/m3
343.15 K, 105.5 kPa	926 kg/m3
343.15 K, 105.6 kPa	925.9 kg/m3
343.15 K, 106 kPa	926.1 kg/m3
343.15 K, 108.9 kPa	926 kg/m3
343.15 K, 123.5 kPa	926.1 kg/m3
343.15 K, 154.3 kPa	926 kg/m3
343.15 K, 224 kPa	926.1 kg/m3
343.15 K, 227.5 kPa	926.1 kg/m3
343.15 K, 231.8 kPa	926 kg/m3
343.15 K, 235.3 kPa	926.1 kg/m3
343.15 K, 239.5 kPa	926.1 kg/m3
343.15 K, 243.8 kPa	926.3 kg/m3
343.15 K, 248 kPa	926.2 kg/m3
343.15 K, 253 kPa	926.2 kg/m3
343.15 K, 257.4 kPa	926.1 kg/m3
343.15 K, 262.8 kPa	926.2 kg/m3
343.15 K, 268.2 kPa	926.1 kg/m3
343.15 K, 273.2 kPa	926.1 kg/m3
343.15 K, 279.6 kPa	926.1 kg/m3
343.15 K, 285.2 kPa	926.2 kg/m3
343.15 K, 292.1 kPa	926.2 kg/m3
343.15 K, 299.6 kPa	926.2 kg/m3
343.15 K, 305.7 kPa	926.2 kg/m3
343.15 K, 313.9 kPa	926.1 kg/m3
343.15 K, 321 kPa	926.1 kg/m3
343.15 K, 329.7 kPa	926.3 kg/m3
343.15 K, 338 kPa	926.3 kg/m3
343.15 K, 347.9 kPa	926.2 kg/m3
343.15 K, 358.4 kPa	926.1 kg/m3
343.15 K, 367.9 kPa	926.2 kg/m3
343.15 K, 379.9 kPa	926.1 kg/m3
343.15 K, 392.9 kPa	926.3 kg/m3
343.15 K, 404.2 kPa	926 kg/m3
343.15 K, 419.5 kPa	926.3 kg/m3
343.15 K, 433.8 kPa	926.1 kg/m3
343.15 K, 449.4 kPa	926.1 kg/m3
343.15 K, 460.9 kPa	926.1 kg/m3
343.15 K, 471.1 kPa	926.2 kg/m3
343.15 K, 480.2 kPa	926.3 kg/m3
343.15 K, 491.8 kPa	926.5 kg/m3
343.15 K, 504 kPa	926.2 kg/m3
343.15 K, 514.2 kPa	926.3 kg/m3
343.15 K, 527.6 kPa	926.3 kg/m3
343.15 K, 538.9 kPa	926.2 kg/m3
343.15 K, 553.3 kPa	926.3 kg/m3
343.15 K, 568.4 kPa	926.4 kg/m3
343.15 K, 582.5 kPa	926.4 kg/m3
343.15 K, 596.2 kPa	926.4 kg/m3
343.15 K, 613.8 kPa	926.4 kg/m3
343.15 K, 632.2 kPa	926.4 kg/m3
343.15 K, 648.4 kPa	926.4 kg/m3
